In patent US10501493B2, “Broad spectrum antibiotics” (priority 2011, dated 2019):
≈ marks a conversion by molar mass, not a printed value. Like-named read-outs stand apart in the source and are kept apart here.

Tests used:
[1] = system: C. glutamicum DSM 44475; assay: In vitro antimicrobial activity, MIC by broth micro-dilution; format: cell-based; settings: Corynebacterium glutamicum, DSM44475, read-out: MIC
[2] = system: E. coli MIG1655 LepB(P84L); assay: as above; format: cell-based; settings: Escherichia coli
In short: (§1)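 CLSI broth micro-dilution MIC against two-fold serial compound dilutions. Inoculum came from colonies grown 24 h at 35° C. or 28° C., suspended in cation-adjusted Mueller Hinton broth at 1*10^7 CFU/ml, of which 5 μl was added per 100 μl well. LepB(P84L) is a proline-mutant SPase strain with heightened arylomycin susceptibility.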

[3] = system: P. aeruginosa PA01 LepB(P84L); assay: as above; format: cell-based; settings: Pseudomonas aeruginosa
In short: as §1

[4] = system: R. equi DSM 6939; assay: as above; format: cell-based; settings: Rhodococcus (subgen. Prescottella) equi, DSM6939, read-out: MIC
In short: as §1

[5] = system: S. agalactiae ATCC 13813; assay: as above; format: cell-based; settings: Streptococcus agalactiae, ATCC13813, read-out: MIC
[6] = system: S. agalactiae COH-1; assay: as above; format: cell-based; settings: Streptococcus agalactiae, COH1; S. agalactiae COH-1; read-out: MIC
[7] = system: S. aureus ATCC 29213; assay: as above; format: cell-based; settings: Staphylococcus aureus, ATCC29213, read-out: MIC
[8] = system: S. aureus NCTC-8325 SpsB(P295); assay: as above; format: cell-based; settings: for MIC: Staphylococcus aureus
[9] = system: S. epidermidis ATCC 12228; assay: as above; format: cell-based; settings: Staphylococcus epidermidis, ATCC12228, read-out: MIC
[10] = system: S. epidermidis RP62A SpsIB(S29P); assay: as above; format: cell-based; settings: Staphylococcus epidermidis
[11] = system: S. epidermidis RP62A SpsIB(S31P); assay: as above; format: cell-based; settings: Staphylococcus epidermidis
[12] = system: S. epidermidis RP62A; assay: as above; format: cell-based; settings: for MIC: Staphylococcus epidermidis
[13] = system: S. pneumoniae D39; assay: as above; format: cell-based; settings: for MIC: Streptococcus pneumoniae
[14] = system: S. pneumoniae R800; assay: as above; format: cell-based; settings: Streptococcus pneumoniae, read-out: MIC
In short: as §1

[15] = system: S. pyogenes ATCC 19615; assay: as above; format: cell-based; settings: Streptococcus pyogenes, ATCC19615, read-out: MIC
[16] = system: S. pyogenes M15448; assay: as above; format: cell-based; settings: Streptococcus pyogenes; S. pyogenes M15448; read-out: MIC
In short: as §1

[17] = system: E. coli ATCC 25922; assay: as above; format: cell-based
[18] = system: E. col ATCC 25922 LepB(P84L); assay: as above; format: cell-based, E. coli; settings: for MIC: Escherichia coli, ATCC25922, read-out: MIC class, E. col ATCC 25922 LepB(P84L)
In short: as §1

[19] = system: S. aurues NCTC-8325; assay: as above; format: cell-based, S. aureus; settings: for MIC: Staphylococcus aureus, NCTC8325, read-out: MIC class, S. aurues NCTC-8325
[20] = biological target: T1, E. coli SPase (Escherichia coli, UniProt P00803); assay: Enzymatic fluorogenic substrate cleavage assay for IC50; format: biochemical
T1 construct: Full length His-tagged E. coli SPase proteins were expressed in E. coli BL21(DE3); His-tag; made in house; host or cells: E. coli BL21(DE3)
T1 sequence (P00803 whole entry): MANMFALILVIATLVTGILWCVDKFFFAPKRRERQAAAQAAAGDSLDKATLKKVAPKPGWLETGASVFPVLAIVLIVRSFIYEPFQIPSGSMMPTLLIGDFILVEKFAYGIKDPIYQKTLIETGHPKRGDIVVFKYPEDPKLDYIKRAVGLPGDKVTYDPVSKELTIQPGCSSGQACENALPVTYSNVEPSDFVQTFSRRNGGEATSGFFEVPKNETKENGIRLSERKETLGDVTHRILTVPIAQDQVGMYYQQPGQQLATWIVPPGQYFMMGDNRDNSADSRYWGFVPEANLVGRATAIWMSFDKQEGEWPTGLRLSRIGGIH
In short: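 Full-length His-tagged E. coli SPase (LepB, 2.5 nM) in 50 mM Tris-HCl pH 8.0, 100 mM NaCl, 10% glycerol, 1 mM EDTA, 1% NP-40 with two-fold compound dilutions; reaction started with fluorogenic abz/nitrotyrosine FRET peptide (added at 100 μM). Fluorescence (ex 314/em 416 nm) monitored 30 min at room temperature; IC50 from initial rates by nonlinear sigmoidal fit.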

[21] = biological target: T2, S. aureus SPase (Staphylococcus aureus, UniProt P0A070); assay: as above; format: biochemical
T2 construct: Full length His-tagged S. aureus SPase protein was expressed similarly; His-tag; made in house; host or cells: E. coli BL21(DE3)
T2 sequence (P0A070 whole entry): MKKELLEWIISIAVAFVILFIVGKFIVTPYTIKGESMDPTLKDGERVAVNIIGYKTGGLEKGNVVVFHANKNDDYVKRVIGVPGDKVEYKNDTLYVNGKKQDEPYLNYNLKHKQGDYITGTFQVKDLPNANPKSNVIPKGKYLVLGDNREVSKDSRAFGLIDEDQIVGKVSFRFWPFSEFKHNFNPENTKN

[22] = S. epidermidis RP62A, read-out: MIC
[23] = S. pneumoniae D39, read-out: MIC
[24] = fluorogenic peptide cleavage, read-out: IC50 class E. coli SPase
[25] = fluorogenic peptide cleavage, read-out: IC50 class S. aureus SPase
[26] = Escherichia coli, ATCC25922; read-out: MIC class, E. coli ATCC 25922
[27] = NCTC8325, read-out: MIC class, S. aureus NCTC-8325 SpsB(P295)
[28] = RP62A, read-out: MIC class, S. epidermidis RP62A
[29] = D39, read-out: MIC class, S. pneumoniae D39

SMILES	MIC [1]	MIC [2]	MIC [3]	MIC [4]	MIC [5]	MIC [6]	MIC [7]	MIC ([8]; NCTC8325)	MIC [9]	MIC [10]	MIC [11]	MIC [12, 22]	MIC [13, 23]	MIC [8, 27]	MIC [12, 28]	MIC [13, 29]	MIC [18]	MIC [19]	IC50 [20]	IC50 [21]	other results
CCCCCCCCCCCCCCCC(=O)N(C)[C@H](CO)C(=O)N[C@H](C)C(=O)NCC(=O)N(C)[C@@H]1C(=O)N[C@@H](C)C(=O)N[C@H](C(=O)N[C@@H](C)C(=O)N2CCC[C@H]2C(=O)O)Cc2ccc(O)c(c2)-c2cc1ccc2O [Compound 25]	64 µg/mL (≈ 61 µM)	8 µg/mL (≈ 7.62 µM)	> 64 µg/mL	> 64 µg/mL	8 µg/mL (≈ 7.62 µM)	> 64 µg/mL	64 µg/mL (≈ 61 µM)	> 64 µg/mL	16 µg/mL (≈ 15.2 µM)	64 µg/mL (≈ 61 µM)	> 64 µg/mL	4 µg/mL (≈ 3.81 µM)	8 µg/mL (≈ 7.62 µM)								MIC [14]: 8 µg/mL (≈ 7.62 µM); MIC [15]: 16 µg/mL (≈ 15.2 µM); MIC [16]: 16 µg/mL (≈ 15.2 µM)
CCCCCCCCCCCCCCCC(=O)N(C)[C@H](CO)C(=O)N[C@H](C)C(=O)NCC(=O)N(C)[C@@H]1C(=O)N[C@@H](C)C(=O)N[C@H](C(=O)NCC(=O)N2CCC[C@H]2C(=O)O)Cc2ccc(O)c(c2)-c2cc1ccc2O [Compound 31]	> 64 µg/mL	16 µg/mL (≈ 15.5 µM)	> 64 µg/mL	> 64 µg/mL	8 µg/mL (≈ 7.73 µM)	> 64 µg/mL	> 64 µg/mL	> 64 µg/mL	32 µg/mL (≈ 30.9 µM)	> 64 µg/mL	> 64 µg/mL	8 µg/mL (≈ 7.73 µM)	4 µg/mL (≈ 3.86 µM)								MIC [14]: 8 µg/mL (≈ 7.73 µM); MIC [15]: 8 µg/mL (≈ 7.73 µM); MIC [16]: 16 µg/mL (≈ 15.5 µM)
CCCCCCCCCCCCCCCC(=O)N(C)[C@H](CO)C(=O)N[C@H](C)C(=O)NCC(=O)N(C)[C@@H]1C(=O)N[C@@H](C)C(=O)N[C@H](C(=O)N[C@@H](C)C(=O)C(=O)N(C)C)Cc2ccc(O)c(c2)-c2cc1ccc2O [Compound 28]	32 µg/mL (≈ 31.8 µM)	8 µg/mL (≈ 7.94 µM)	> 64 µg/mL	> 64 µg/mL	16 µg/mL (≈ 15.9 µM)	32 µg/mL (≈ 31.8 µM)	> 64 µg/mL	32 µg/mL (≈ 31.8 µM)	16 µg/mL (≈ 15.9 µM)	> 64 µg/mL	> 64 µg/mL	4 µg/mL (≈ 3.97 µM)	8 µg/mL (≈ 7.94 µM)								MIC [14]: 16 µg/mL (≈ 15.9 µM); MIC [15]: 16 µg/mL (≈ 15.9 µM); MIC [16]: 32 µg/mL (≈ 31.8 µM)
CCCCCCCCCCCCCCCC(=O)N(C)[C@H](CO)C(=O)N[C@H](C)C(=O)NCC(=O)N(C)[C@@H]1C(=O)N[C@@H](C)C(=O)N[C@H](C(=O)NCC(O)C(=O)NC)Cc2ccc(O)c(c2)-c2cc1ccc2O (stereo partly drawn) [Compound 90]																					MIC class, E. coli ATCC 25922 ([17]; E. coli ATCC 25922): a (MIC >64 μg/ml); MIC class, S. aureus NCTC-8325 SpsB(P295) [8]: a (MIC >64 μg/ml); MIC class, S. epidermidis RP62A ([12]; S. epidermidis RP62A): c (MIC ≤8 μg/ml); MIC class, S. pneumoniae D39 ([13]; S. pneumoniae D39): c (MIC ≤8 μg/ml); MIC class, E. col ATCC 25922 LepB(P84L) [18]: a (MIC >64 μg/ml); MIC class, S. aurues NCTC-8325 [19]: a (MIC >64 μg/ml); IC50 [20, 24]: 1 to 10 µM; IC50 [21, 25]: 1 to 10 µM
CCCCCCCCCCCCCCCC(=O)N(C)[C@H](CO)C(=O)N[C@H](C)C(=O)NCC(=O)N(C)[C@@H]1C(=O)N[C@@H](C)C(=O)N[C@H](C(=O)N[C@H](CO)CCC)Cc2ccc(O)c(c2)-c2cc1ccc2O [Compound 69]														> 64 µg/mL	16 to 64 µg/mL (≈ 16.6 to 66.2 µM)	16 to 64 µg/mL (≈ 16.6 to 66.2 µM)	< 8 µg/mL	> 64 µg/mL	1 to 10 µM	> 10 µM	MIC [17, 26]: > 64 µg/mL
CCCCCCCCCCCCCCCC(=O)N(C)[C@H](CO)C(=O)N[C@H](C)C(=O)N(C)CC(=O)N(C)[C@@H]1C(=O)N[C@@H](C)C(=O)N[C@H](C(=O)O)Cc2ccc(O)c(c2)-c2cc1ccc2O [Compound 84]														> 64 µg/mL	16 to 64 µg/mL (≈ 17.9 to 71.5 µM)	< 8 µg/mL	> 64 µg/mL	> 64 µg/mL	< 1 µM	< 1 µM	MIC [17, 26]: > 64 µg/mL
CCCCCCCCCCCCCCCC(=O)N(C)[C@H](CO)C(=O)N[C@H](C)C(=O)NCC(=O)N(C)[C@@H]1C(=O)N[C@@H](C)C(=O)N[C@H](C(=O)NCC=O)CCCc2ccc(O)c(c2)-c2cc1ccc2O [Compound 94]																					MIC class, E. coli ATCC 25922 ([17]; E. coli ATCC 25922): a (MIC >64 μg/ml); MIC class, S. aureus NCTC-8325 SpsB(P295) [8]: a (MIC >64 μg/ml); MIC class, S. epidermidis RP62A ([12]; S. epidermidis RP62A): c (MIC ≤8 μg/ml); MIC class, S. pneumoniae D39 ([13]; S. pneumoniae D39): b (MIC 16-64 μg/ml); MIC class, E. col ATCC 25922 LepB(P84L) [18]: a (MIC >64 μg/ml); MIC class, S. aurues NCTC-8325 [19]: a (MIC >64 μg/ml); IC50 [20, 24]: < 1 µM; IC50 [21, 25]: < 1 µM
CCCCCCCCCCCCCCCC(=O)N(C)[C@H](CO)C(=O)N[C@H](C)C(=O)NCC(=O)N(C)[C@@H]1C(=O)N[C@@H](C)C(=O)N[C@H](C(=O)O)Cc2ccc(OC)c(c2)-c2cc1ccc2OC [Compound 77]														16 to 64 µg/mL (≈ 17.6 to 70.4 µM)	> 64 µg/mL	16 to 64 µg/mL (≈ 17.6 to 70.4 µM)	< 8 µg/mL	> 64 µg/mL	> 10 µM	1 to 10 µM	MIC ([17]; Escherichia coli, ATCC25922, read-out: MIC class, E. coli ATCC 25922): > 64 µg/mL
CCCCCCCCCCCCCCCC(=O)N(C)C(CO)C(=O)N[C@H](C)C(=O)NCC(=O)N(C)[C@@H]1C(=O)N[C@@H](C)C(=O)NC(C(=O)NCC(=O)C(=O)N(C)C)Cc2ccc(O)c(c2)-c2cc1ccc2O (stereo partly drawn) [Compound 59]														> 64 µg/mL	< 8 µg/mL	16 to 64 µg/mL (≈ 16.1 to 64.4 µM)	16 to 64 µg/mL (≈ 16.1 to 64.4 µM)	> 64 µg/mL	< 1 µM	1 to 10 µM	MIC [17, 26]: > 64 µg/mL
